Article PMC3914206

What was measured:
[1] = target: T1, panel of 442 kinases (Homo sapiens, UniProt P00533, L858R); format: binding; conditions: Compound Concentration 10 µM
T1 construct: purchased KINOMEscan
Excerpt: (§1) We assessed the selectivity of members of this scaffold using the KINOMEscan methodology across a near comprehensive panel of 442 kinases [[18,27]].

[2] = target: T2, panel of 442 kinases (Homo sapiens, UniProt Q13873); format: binding; conditions: Compound Concentration 10 µM
T2 construct: purchased KINOMEscan
T2 sequence (Q13873 27-1038): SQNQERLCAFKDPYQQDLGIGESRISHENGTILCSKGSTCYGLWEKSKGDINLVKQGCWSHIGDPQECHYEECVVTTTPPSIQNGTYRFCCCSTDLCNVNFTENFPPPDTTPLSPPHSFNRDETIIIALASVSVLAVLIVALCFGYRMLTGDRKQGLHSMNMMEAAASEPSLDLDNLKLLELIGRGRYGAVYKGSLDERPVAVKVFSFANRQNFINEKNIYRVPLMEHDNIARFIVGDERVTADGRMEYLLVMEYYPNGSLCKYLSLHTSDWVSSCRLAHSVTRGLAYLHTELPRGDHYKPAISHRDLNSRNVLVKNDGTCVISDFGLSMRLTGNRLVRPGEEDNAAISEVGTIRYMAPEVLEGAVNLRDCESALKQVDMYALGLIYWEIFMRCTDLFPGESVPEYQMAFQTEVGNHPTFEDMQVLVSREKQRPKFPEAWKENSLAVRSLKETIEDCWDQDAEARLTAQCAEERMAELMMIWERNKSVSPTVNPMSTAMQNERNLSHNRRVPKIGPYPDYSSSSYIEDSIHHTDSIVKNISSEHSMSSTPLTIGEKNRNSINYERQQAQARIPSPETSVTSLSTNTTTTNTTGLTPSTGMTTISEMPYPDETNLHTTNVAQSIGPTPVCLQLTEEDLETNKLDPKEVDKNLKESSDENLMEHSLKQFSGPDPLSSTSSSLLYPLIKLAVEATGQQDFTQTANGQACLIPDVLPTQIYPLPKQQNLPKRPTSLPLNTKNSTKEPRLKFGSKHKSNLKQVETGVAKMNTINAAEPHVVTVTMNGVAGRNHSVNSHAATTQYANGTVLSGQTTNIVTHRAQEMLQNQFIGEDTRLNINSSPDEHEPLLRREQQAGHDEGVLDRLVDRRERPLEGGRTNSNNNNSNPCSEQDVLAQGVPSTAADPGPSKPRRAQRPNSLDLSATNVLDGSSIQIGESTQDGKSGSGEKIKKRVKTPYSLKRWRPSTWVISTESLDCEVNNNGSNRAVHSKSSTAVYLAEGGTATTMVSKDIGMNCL
Excerpt: as §1

T1 sequence (P00533 25-1210 L858R): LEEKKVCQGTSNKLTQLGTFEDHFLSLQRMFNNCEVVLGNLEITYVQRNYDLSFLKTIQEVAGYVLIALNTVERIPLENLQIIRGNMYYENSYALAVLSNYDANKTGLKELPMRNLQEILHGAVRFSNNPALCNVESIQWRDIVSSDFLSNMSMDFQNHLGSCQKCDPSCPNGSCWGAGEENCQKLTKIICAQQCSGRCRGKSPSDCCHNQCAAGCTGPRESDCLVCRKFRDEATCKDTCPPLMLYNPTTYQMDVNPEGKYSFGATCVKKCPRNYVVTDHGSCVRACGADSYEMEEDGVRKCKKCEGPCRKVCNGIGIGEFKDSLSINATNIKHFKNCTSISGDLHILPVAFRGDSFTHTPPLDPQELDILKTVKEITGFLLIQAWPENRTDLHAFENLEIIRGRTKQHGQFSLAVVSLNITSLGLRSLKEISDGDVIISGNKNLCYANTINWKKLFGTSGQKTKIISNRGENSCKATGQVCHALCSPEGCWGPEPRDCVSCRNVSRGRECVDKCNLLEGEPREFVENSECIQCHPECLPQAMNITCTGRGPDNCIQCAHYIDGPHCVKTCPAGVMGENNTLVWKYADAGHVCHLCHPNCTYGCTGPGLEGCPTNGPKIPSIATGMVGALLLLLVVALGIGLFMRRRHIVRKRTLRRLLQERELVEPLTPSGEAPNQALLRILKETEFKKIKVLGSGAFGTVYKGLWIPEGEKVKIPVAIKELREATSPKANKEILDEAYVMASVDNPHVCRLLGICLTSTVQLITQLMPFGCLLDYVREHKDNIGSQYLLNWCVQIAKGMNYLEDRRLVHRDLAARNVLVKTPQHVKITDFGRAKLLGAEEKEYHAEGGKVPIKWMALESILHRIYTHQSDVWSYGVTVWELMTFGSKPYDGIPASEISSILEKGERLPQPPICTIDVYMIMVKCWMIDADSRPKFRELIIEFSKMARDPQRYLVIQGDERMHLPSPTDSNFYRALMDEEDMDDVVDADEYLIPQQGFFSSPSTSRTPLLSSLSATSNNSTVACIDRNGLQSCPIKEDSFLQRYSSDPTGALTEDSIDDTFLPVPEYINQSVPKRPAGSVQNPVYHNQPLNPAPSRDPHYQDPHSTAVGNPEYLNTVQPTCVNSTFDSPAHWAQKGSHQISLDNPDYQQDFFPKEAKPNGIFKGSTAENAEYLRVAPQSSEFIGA

Row | SMILES | KINOMEscan: EGFR(L858R) [1] | KINOMEscan: BMPR2 [2]
1 | COc1cc(C(=O)N2CCC(N3CCN(C)CC3)CC2)ccc1Nc1ncc2c(n1)N1CCc3cccc(c31)C(=O)N2C [Compound 24] | 62 | 
2 | CCOc1cc(C(=O)N2CCC(N3CCN(C)CC3)CC2)ccc1Nc1ncc2c(n1)N(C1CCCC1)c1ccccc1C(=O)N2C [Compound 26] | 100 | 93
3 | COc1cc(C(=O)N2CCC(N3CCN(C)CC3)CC2)ccc1Nc1ncc2c(n1)N(C1CCCC1)c1ccccc1C(=O)N2C [Compound 25, 11-cyclopentyl-2-((2-methoxy-4-(4-(4-methylpiperazin-1-yl)piperidine-1-carbonyl)phenyl)amino)-5-methyl-5H-benzo[e]pyrimido[5,4-b][1,4]diazepin-6(11H)-one] | 83 | 100
4 | COc1cc(C(=O)N2CCC(N3CCN(C)CC3)CC2)ccc1Nc1ncc2c(n1)N(C)c1ccccc1C(=O)N2C [15 (LRRK2-IN-1)] | 79 | 100
